From the supplement of paper PMC10307832

Experiments:
Assay in all cases: relative viability (nuclei count vs DMSO), 5 days (fraction); higher = more cells survive
HCC-827 = tested on: HCC-827
Summary of the method: (§1)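 Relative viability was taken as the ratio of nuclei in treated wells to nuclei in vehicle wells. Lung cancer cell lines in 1536-well plates received compounds by pin tool one day after seeding, either one drug alone or a fixed anchor-drug dose plus five library-drug doses (not always all listed) in √10 steps. Nuclei were counted on 4× images after 5 days of treatment, and values are medians of duplicate plates.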

NCI-H322M = tested on: NCI-H322M
Summary of the method: as §1

NCI-H1651 = tested on: NCI-H1651
Summary of the method: as §1

SK-MES-1 = tested on: SK-MES-1
Summary of the method: as §1

NCI-H1355 = tested on: NCI-H1355
Summary of the method: as §1

HCC-15 = tested on: HCC-15
Summary of the method: as §1

NCI-H2405 = tested on: NCI-H2405
Summary of the method: as §1

CAL-12T = tested on: CAL-12T
Summary of the method: as §1

EKVX = tested on: EKVX
Summary of the method: as §1

NCI-H2228 = tested on: NCI-H2228
Summary of the method: as §1

RERF-LC-KJ = tested on: RERF-LC-KJ
Summary of the method: as §1

PC-14 = tested on: PC-14
Summary of the method: as §1

COR-L23 = tested on: COR-L23
Summary of the method: as §1

LK-2 = tested on: LK-2
Summary of the method: as §1

ABC-1 = tested on: ABC-1
Summary of the method: as §1

NCI-H1734 = tested on: NCI-H1734
Summary of the method: as §1

NCI-H1437 = tested on: NCI-H1437
Summary of the method: as §1

NCI-H520 = tested on: NCI-H520
Summary of the method: as §1

PC-3 [JPC-3] = tested on: PC-3 [JPC-3]
Summary of the method: as §1

NCI-H661 = tested on: NCI-H661
Summary of the method: as §1

H3255 = tested on: H3255
Summary of the method: as §1

SW 1573 = tested on: SW 1573
Summary of the method: as §1

NCI-H1563 = tested on: NCI-H1563
Summary of the method: as §1

`CC(C)Oc1cc(Nc2nc(N[C@@H](C)c3ccc(F)cn3)ncc2Cl)n[nH]1` [AZ23] + Cc1nc(NC(=O)N2CCC[C@H]2C(N)=O)sc1-c1ccnc(C(C)(C)C(F)(F)F)c1 [Alpelisib] (partner 2 µM) showed a relative viability (HCC-827; first compound 0.01 µM) of 1.11, a relative viability (HCC-827; first compound 0.03162 µM) of 1.05 and a relative viability (HCC-827; first compound 0.3162 µM) of 1.07. It also gave a relative viability (NCI-H322M; first compound 0.01 µM) of 0.774, a relative viability (NCI-H322M; first compound 0.03162 µM) of 0.774 and a relative viability (NCI-H322M; first compound 0.3162 µM) of 0.823. It also gave a relative viability (NCI-H1651; first compound 0.01 µM) of 0.773, a relative viability (NCI-H1651; first compound 0.03162 µM) of 1.05 and a relative viability (NCI-H1651; first compound 0.3162 µM) of 1.16. It also gave a relative viability (SK-MES-1; first compound 0.01 µM) of 1.01, a relative viability (SK-MES-1; first compound 0.03162 µM) of 0.997 and a relative viability (SK-MES-1; first compound 0.3162 µM) of 1.06. The relative viability (NCI-H1355; first compound 0.01 µM) was 0.876, the relative viability (NCI-H1355; first compound 0.03162 µM) was 0.873 and the relative viability (NCI-H1355; first compound 0.3162 µM) was 0.782. It also gave a relative viability (HCC-15; first compound 0.01 µM) of 1.13, a relative viability (HCC-15; first compound 0.03162 µM) of 0.857 and a relative viability (HCC-15; first compound 0.3162 µM) of 0.877. The relative viability (NCI-H2405; first compound 0.01 µM) was 0.708, the relative viability (NCI-H2405; first compound 0.03162 µM) was 0.768 and the relative viability (NCI-H2405; first compound 0.3162 µM) was 0.754. It also gave a relative viability (CAL-12T; first compound 0.01 µM) of 0.787, a relative viability (CAL-12T; first compound 0.03162 µM) of 1.26 and a relative viability (CAL-12T; first compound 0.3162 µM) of 1.28. The relative viability (EKVX; first compound 0.01 µM) was 0.923, the relative viability (EKVX; first compound 0.03162 µM) was 1.07 and the relative viability (EKVX; first compound 0.3162 µM) was 0.978. For the same compound, the relative viability (NCI-H2228; first compound 0.01 µM) was 0.88, the relative viability (NCI-H2228; first compound 0.03162 µM) was 1.01 and the relative viability (NCI-H2228; first compound 0.3162 µM) was 0.67. It also gave a relative viability (RERF-LC-KJ; first compound 0.01 µM) of 0.714, a relative viability (RERF-LC-KJ; first compound 0.03162 µM) of 0.925 and a relative viability (RERF-LC-KJ; first compound 0.3162 µM) of 0.845. The relative viability (PC-14; first compound 0.01 µM) was 0.897, the relative viability (PC-14; first compound 0.03162 µM) was 1.13 and the relative viability (PC-14; first compound 0.3162 µM) was 1.06. For the same compound, the relative viability (COR-L23; first compound 0.01 µM) was 0.815, the relative viability (COR-L23; first compound 0.03162 µM) was 0.921 and the relative viability (COR-L23; first compound 0.3162 µM) was 0.821. The relative viability (LK-2; first compound 0.03162 µM) was 1.26, the relative viability (LK-2; first compound 0.3162 µM) was 1.17 and the relative viability (ABC-1; first compound 0.01 µM) was 0.717. The relative viability (ABC-1; first compound 0.03162 µM) was 1.23, the relative viability (ABC-1; first compound 0.3162 µM) was 1.14 and the relative viability (NCI-H1734; first compound 0.01 µM) was 0.683. It also gave a relative viability (NCI-H1734; first compound 0.03162 µM) of 0.772, a relative viability (NCI-H1734; first compound 0.3162 µM) of 0.649 and a relative viability (NCI-H1437; first compound 0.01 µM) of 0.949. It also gave a relative viability (NCI-H1437; first compound 0.03162 µM) of 1.15, a relative viability (NCI-H1437; first compound 0.3162 µM) of 1.06 and a relative viability (NCI-H520; first compound 0.01 µM) of 1.06. It also gave a relative viability (NCI-H520; first compound 0.03162 µM) of 0.988, a relative viability (NCI-H520; first compound 0.3162 µM) of 0.752 and a relative viability (PC-3 [JPC-3]; first compound 0.01 µM) of 1.14. The relative viability (PC-3 [JPC-3]; first compound 0.03162 µM) was 1.06, the relative viability (PC-3 [JPC-3]; first compound 0.3162 µM) was 0.962 and the relative viability (NCI-H661; first compound 0.01 µM) was 0.629. The relative viability (NCI-H661; first compound 0.03162 µM) was 0.686, the relative viability (NCI-H661; first compound 0.3162 µM) was 0.908 and the relative viability (H3255; first compound 0.01 µM) was 0.637. It also gave a relative viability (H3255; first compound 0.03162 µM) of 0.868, a relative viability (H3255; first compound 0.3162 µM) of 0.863 and a relative viability (SW 1573; first compound 0.01 µM) of 0.852. The relative viability (SW 1573; first compound 0.03162 µM) was 0.845, the relative viability (SW 1573; first compound 0.3162 µM) was 0.712 and the relative viability (NCI-H1563; first compound 0.01 µM) was 0.895. The relative viability (NCI-H1563; first compound 0.03162 µM) was 0.961 and the relative viability (NCI-H1563; first compound 0.3162 µM) was 0.899.
